In PMC5800123, “Preparation and Optimisation of Cross-Linked Enzyme Aggregates Using Native Isolate White Rot Fungi Trametes versicolor and Fomes fomentarius for the Decolourisation of Synthetic Dyes” (International Journal of Environmental Research and Public …, 2017):

What was measured:
[1] = system: T1, free laccase from F. fomentarius (FF); conditions: read-out: Km Free Laccase; free enzyme from crude culture supernatant; ABTS 0.05-2.0 mM; general assay buffer 0.1 M sodium acetate pH 4.5
T1 construct: gene lac

[2] = system: T2, free laccase from T. versicolor (TV); conditions: read-out: Km Free Laccase; free enzyme from crude culture supernatant; ABTS 0.05-2.0 mM; general assay buffer 0.1 M sodium acetate pH 4.5
T2 construct: gene LCC1

Km [1]: 87 µM
Km [2]: 1900 µM
Structure (SMILES): CCn1c(=NN=c2sc3cc(S(=O)(=O)O)ccc3n2CC)sc2cc(S(=O)(=O)O)ccc21 [ABTS]
